From the METLIN SMRT retention time set (Domingo-Almenara et al. 2019) come the findings set out here.

SMILES strings stand for the structures.

A short description of this data set: gradient 5% acetonitrile 3 min, to 50% in 2 min, to 85% in 15 min, held 3 min, 100 µL/min. The settings on record: column: Zorbax Extend-C18 2.1 x 50 mm; eluents: water / acetonitrile, 0.1% formic acid. In a few lines: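 Standards, all pure, were combined into mixtures of ~100 molecules and run at 100 μL/min on a Zorbax Extend-C18 column (2.1 × 50 mm, 1.8 μm) with water and acetonitrile, each containing 0.1% formic acid. A coupled quadrupole time-of-flight mass spectrometer operated in positive and negative ionization mode. Retention time values come from computationally picked adduct peaks, each inspected manually.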
Compound `COc1ccc(NC(=O)c2ccc(N3C(=O)CCC3=O)cc2)c([N+](=O)[O-])c1` yielded an RP-LC retention time of 716 s.
As for `O=C(Cn1cnc(-c2cccs2)cc1=O)Nc1ccc(-n2cnnn2)cc1`, the RP-LC retention time stood at 660 s.
Compound `Cc1ccc(S(=O)(=O)N2CCC(C(=O)NCc3csc(-c4cccs4)n3)CC2)cc1C` yielded an RP-LC retention time of 950 s.
For `COCCCNC(=O)c1ccc(-c2nc(CSc3ccccc3)c(C)o2)cc1` the value was 934 s; for `Cc1ccc(NC(=O)N2CCc3nc(-c4ccccc4)ncc3C2)c(Cl)c1`, 1080 s; for `CCOC(=O)C1CCN(c2nc3ccccc3n2Cc2cc(C)ccc2C)CC1`, 858 s.
The result for `Cc1ccn2cc(C(=O)NCc3ccc4c(c3)OCO4)nc2c1` reads 679 s.
The result for `COc1ccc(N2CCN(c3nc(C(=O)N4CCN(CC(C)C)CC4)cs3)CC2)cc1` reads 648 s; that for `CC(=O)c1cccc(NC(=O)CCc2c(C)nn(-c3cc(N(C)C)ncn3)c2C)c1`, 731 s.
As to `Cc1ccc(C)c(CNC(=O)c2c(C)sc3ccn(C)c(=O)c23)c1`, the RP-LC retention time worked out at 848 s.
`O=C(Cn1cccc(-c2nc(-c3ccc(F)cc3)no2)c1=O)NC1CCCC1` showed an RP-LC retention time of 797 s.
For `CCN1C[C@H](C)n2c(c(O)c3c(=O)n(Cc4ccc(F)c(Cl)c4)nc(C(=O)NC)c32)C1=O` the value was 871 s.
For the compound `Cn1c(C2CCN(C(=O)c3ccc(C(F)(F)F)s3)C2)nc2cccnc21` (centres undefined), the RP-LC retention time came out at 716 s.
The result for `Cc1ccc(C2Cn3cnc(C(=O)N4CCC(C(=O)NCc5ccccc5)CC4)c3CO2)cc1` (centres undefined) reads 796 s; that for `Cc1ccccc1CNC(=O)C(=O)NCC(c1ccc2c(c1)OCO2)N1CCOCC1` (centres undefined), 668 s; that for `O=C1NC2(CCN(C(=O)Nc3ccc(F)cc3)CC2)N=C1c1ccc(Cl)cc1`, 890 s.
In turn, `CS(=O)(=O)N1CCC(OC2CCN(C(=O)Nc3ccc(F)cc3F)CC2)CC1` gave an RP-LC retention time of 720 s.
For `CC(C)c1ccc(C(=O)N2CCCC2COc2ccc(C(=O)NC3CC3)cc2)cc1` (centres undefined), the RP-LC retention time turned out to be 910 s.
For `CCC1Oc2ccc(S(=O)(=O)N3CCC(C(=O)N(CC)c4cccc(C)c4)CC3)cc2NC1=O` (centres undefined) the value was 974 s.
Turning to `Cc1noc([C@@H]2CC(F)(F)CN2C(=O)c2cnc[nH]2)n1`, the RP-LC retention time amounted to 582 s.
`CCCn1cc(CCNS(=O)(=O)c2ccc(CC)cc2)c2cccnc21` yielded an RP-LC retention time of 935 s.
As to `CSCC(=O)N1CCC(C2CCN(C(C)=O)CC2)C1` (centres undefined), the RP-LC retention time was 624 s.
The result for `Cc1ccc(-c2nnc(-c3ccc(Cl)c(S(=O)(=O)N4CCCC4)c3)o2)cc1` reads 1150 s; that for `Cn1nc(C(=O)NCc2ccc3c(c2)OCO3)c2c1CCN(C(=O)C1CC1)C2`, 716 s; that for `CCCN1C(=O)c2cc(C(=O)N3CCCCCC3)nn2CC1(C)C(=O)NC1CCCC1` (centres undefined), 803 s.
For `CS(=O)(=O)Nc1ccc2c(c1)C(=O)Nc1cc(Cl)ccc1O2` the value was 738 s.
For `O=C(c1ccc(F)cc1)N1CCC(CCNS(=O)(=O)c2cc(F)ccc2F)CC1` the value was 870 s.
`Cc1noc(C)c1CCNC(=O)c1ccc2ccnc(N3CCN(c4ccc(F)cc4)CC3)c2c1` had an RP-LC retention time of 731 s.
Compound `c1ccc(-c2nc(CSc3cc(N4CCOCC4)ncn3)cs2)cc1` had an RP-LC retention time of 817 s.
Consider `CCCNC(=O)C1CCN(c2ccc(SCC(=O)Nc3ccc(F)cc3F)nn2)CC1`, for which the RP-LC retention time turned out to be 670 s.
For `O=C(Cn1c(=O)cc(-c2nc(-c3ccccc3)no2)c2ccccc21)N1CCCC1` the value was 1000 s; for `Cc1cc(=O)n(CC(=O)Nc2ccc3c(c2)OCO3)c(-c2ccc(Cl)cc2)n1`, 1040 s; for `COc1ccc(S(=O)(=O)N2CCCC(C(=O)NCCO)C2)cc1OC` (centres undefined), 597 s.
The result for `CNC(=O)C1CN(C(=O)c2cccc(C(F)(F)F)c2)CC12CCCC2` (centres undefined) reads 749 s; that for `COc1ccccc1C(=O)N1CCN(c2nc3ccccc3n(C)c2=O)CC1`, 830 s; that for `CCc1noc(-c2ccc(SCC(=O)N3CCC(C)CC3)nc2)n1`, 975 s.
The result for `CC(C)NC(=O)CN1CCN(C(=O)c2sc3ncccc3c2-n2cccc2)CC1` reads 607 s; that for `CC(C)(C)c1ccc(C(=O)Nc2ccc3nnc(C4CCC4)n3c2)cc1`, 772 s.
In the case of `O=S1(=O)N=CN(c2ccc(F)cc2)c2ncccc21`, the RP-LC retention time came out at 738 s.
Turning to `COc1ccc(OC)c(NC(=O)N2CCC3(CC2)N=C(c2ccc(F)cc2)C(=O)N3)c1`, the RP-LC retention time was 838 s.
The result for `C=CCN1CCc2cccc3c2[C@H]1Cc1ccc(O)c(O)c1-3` reads 659 s; that for `COc1cccc(-n2ccn3cc(-c4ccc(F)cc4)nc3c2=O)c1`, 821 s; that for `CCCn1c(=O)c(C)nc2cc(-c3noc(-c4ccc(OC)cc4)n3)ccc21`, 1160 s.
Take `COC(=O)NCc1nnnn1-c1ccc(OC)cc1`: the RP-LC retention time was 616 s.
For `Cc1sc(-c2cc(C(F)(F)F)on2)cc1S(=O)(=O)NCCc1ccc(Cl)cc1` the value was 1220 s; for `Cc1ccc(-c2csc(-n3nc(C)c(CC(=O)Nc4ccc(C)c(C)c4)c3C)n2)cc1`, 1310 s; for `COc1ccc(Nc2c(-c3ccccc3)nc3cnc(Br)cn23)cc1OC`, 856 s.
In turn, `COc1cc(C)c(S(=O)(=O)Nc2ccc(-c3cn4ccc(C)nc4n3)cc2)cc1C` displayed an RP-LC retention time of 683 s.
For the compound `COc1nn(C)cc1C(=O)Nc1nc(-c2cc(Cl)sc2Cl)cs1`, the RP-LC retention time turned out to be 1210 s.
For `Cc1cccc(Cn2ccnc2C(N)=O)c1`, the RP-LC retention time is 801 s.
The result for `CN1CC2(CCN(C(=O)NC3CCCCC3)CC2)CC1C(=O)N1CCOCC1` (centres undefined) reads 595 s; that for `COc1ccc(N2CCN(C(=O)c3cc(S(=O)(=O)N4CCC(C)CC4)cn3C)CC2)cc1`, 923 s; that for `Cc1ccccc1N1CCN(c2ncc(C(=O)O)c(C)n2)CC1`, 1040 s.
`CN1c2cc(C(=O)Nc3cccc(C(F)(F)F)c3)ccc2C(=O)N2CCCCC21` (centres undefined): the RP-LC retention time was 930 s.
The result for `COc1ccc(OCC(=O)N2CCC(C(=O)NCCc3csc(-c4ccccc4)n3)CC2)cc1` reads 818 s.
The result for `CCc1ccc(S(=O)(=O)N2CCCC2c2nc(-c3cccc(Cl)c3)no2)cc1` (centres undefined) reads 1300 s; that for `CCCn1cc(CCNC(=O)Nc2cc(C)ccc2C)c2cccnc21`, 808 s; that for `COc1cccc(-c2noc(Cn3c(=O)n(-c4ccccc4F)c(=O)c4sccc43)n2)c1`, 957 s.
The result for `CCCCN(Cc1ccco1)c1nc(-c2ccc(OC)cc2)nc2ccccc12` reads 940 s; that for `O=C(NCCc1csc(-c2ccccc2)n1)C1CCN(C(=O)c2cccc(Cl)c2)CC1`, 846 s.
In turn, `CCOc1ccccc1NS(=O)(=O)c1c(C(=O)OC)sc2cccc(F)c12` yielded an RP-LC retention time of 974 s.
The result for `Cc1ccn2c(Nc3ccc4c(c3)OCCO4)c(-c3ccc(O)cc3)nc2c1` reads 719 s; that for `CCn1c(=O)c(N2CCCC(C(=O)NCCc3c[nH]c4ccc(OC)cc34)C2)nc2ccccc21` (centres undefined), 907 s; that for `Cc1ccccc1NC(=O)C1CCc2nc(N3CCOCC3)ncc2C1` (centres undefined), 723 s.
The result for `Cc1ccc(CN2CCC(CNC(=O)C3CCCN(c4nccc(C)n4)C3)CC2)cc1` (centres undefined) reads 594 s; that for `CCn1cnc(S(=O)(=O)N2CCCC(C(=O)Nc3ccc(C)cc3)C2)c1` (centres undefined), 748 s.
Turning to `COC(=O)c1ccc(NCc2cc(O)ccc2O)cc1`, the RP-LC retention time is 680 s.
In turn, `Cc1ccc(-c2nc(-c3ccc4c(c3)oc(=O)n4C(C)C)no2)c(C)c1` gave an RP-LC retention time of 761 s.
On to `CCc1noc(-c2ccc(SCC(=O)N3CCCCC3)nc2)n1`, for which the RP-LC retention time is 875 s.
`CCOc1ccc(-c2noc(N3CCC(C(=O)N4CCN(CC)CC4)CC3)n2)cc1OC` had an RP-LC retention time of 630 s.
On to `Cc1nnc(-c2ccc3ccn(CC(=O)Nc4ccccc4Cl)c3c2)o1`, for which the RP-LC retention time is 963 s.
The compound `CCCCn1c(=O)c2ccccc2n(Cc2nc(-c3ccc(Br)cc3)no2)c1=O` showed an RP-LC retention time of 1300 s.
With `Cc1ccc(S(=O)(=O)N2CC(Cc3nncn3C3CCCC3)C2)cc1F`, the RP-LC retention time came to 747 s.
For `CCC(C)NC(=O)Cn1nc(-c2ccccc2)c2cc(Cl)ccc21` (centres undefined) the value was 1060 s; for `CC(C)n1c(CCNC(=O)c2ccccc2F)nc2cccnc21`, 652 s.
Regarding `Cc1cc(Nc2nc(C(=O)N3CCN(c4ccccn4)CC3)cc3occc23)ccc1Br`, the RP-LC retention time was 754 s.
As to `CCc1cc(C(=O)N2CCCC2c2ccc(C)cc2)no1` (centres undefined), the RP-LC retention time amounted to 999 s.
For `CCc1nnc(-c2ccc(NC(=O)CCc3ccc(OC)cc3)cc2)o1` the value was 795 s; for `Cc1c(-c2ccnc(N3CCCCC3)n2)cnc2nc(-c3ccccc3)nn12`, 1180 s.
